{"source": "paper PMC8900464", "about": "(Journal of medicinal chemistry, 2022)", "key": {"total AKT (T-AKT)": {"test_system": "total AKT (T-AKT)", "test": "Immunoblotting of total AKT in BT474 cells", "format": "cell-based", "conditions": "24 h, western blot; for T-AKT protein level: BT474 cells, 1 μM; for AKT (T-AKT) degradation: BT474 cells, 1, 5 and 10 μM"}, "[1]": {"test_system": "P-AKT (S473), P-PRAS40 (T246), P-S6 (S240/244)", "test": "Immunoblotting of P-AKT and downstream signaling in BT474 cells", "format": "cell-based", "conditions": "24 h; for downstream signaling inhibition: P-PRAS40 and P-S6, western blot"}, "T-AKT [2]": {"test_system": "T-AKT", "test": "T-AKT degradation in PC3 cells", "format": "cell-based, human", "conditions": "for T-AKT level after washout: 48 h post-treatment"}, "PC3 cells": {"test_system": "PC3 cells", "test": "Cell proliferation assay", "format": "cell-based, human", "conditions": "5 days"}, "MDA-MB-468 cells": {"test_system": "MDA-MB-468 cells", "test": "Cell proliferation assay", "format": "cell-based", "conditions": "5 days"}, "PC-3 xenografts [3]": {"test_system": "PC-3 xenografts", "conditions": "PC3 xenograft, 75 mg/kg once daily IP; cited from earlier work"}, "P-PRAS40, P-S6": {"test_system": "P-PRAS40, P-S6", "test": "Downstream signaling in PC3 cells", "conditions": "for downstream signaling inhibition after washout: 1 μM for 24 h, then washout"}, "BT474 cells": {"test_system": "BT474 cells", "test": "Cell colony formation assay", "format": "cell-based", "conditions": "14 days"}, "T-AKT [4]": {"test_system": "T-AKT", "test": "Competition", "format": "cell-based, human", "conditions": "PC3 cells, then compound 24 h"}, "PC-3 xenografts [5]": {"test_system": "PC-3 xenografts", "format": "in vivo", "conditions": "PC3 xenograft mice, 75 mg/kg once daily IP, 22 days"}, "T-AKT, P-AKT, P-PRAS40": {"test_system": "T-AKT, P-AKT, P-PRAS40", "test": "Western blotting analysis of xenograft tumor samples", "format": "in vivo, mice", "conditions": "PC3 xenograft, 75 mg/kg once daily IP, end of study"}, "[6]": {"test": "Mouse pharmacokinetic study", "format": "in vivo, mice", "conditions": "male, Swiss Albino, plasma, ip, 150 mg/kg"}, "[7]": {"conditions": "BT474 cells, 1 μM, western blot"}}, "note": "Entries after “also recorded” stand apart in the source; their conditions may differ."}
{"compound": "4-Amino-N-[(1S)-1-(4-chlorophenyl)-3-hydroxypropyl]-1-(7H-pyrrolo[2,3-d]pyrimidin-4-yl)piperidine-4-carboxamide [AZD5363, reference compound]", "values": [{"measurement": "T-AKT protein level", "setting": "total AKT (T-AKT)", "value": "downregulated the T-AKT protein level"}, {"measurement": "downstream signaling (PRAS40 and S6 phosphorylation)", "setting": "[1]; [7]", "value": "effectively inhibited the phosphorylation of downstream PRAS40 and ribosomal protein S6"}, {"measurement": "phosphorylated AKT level", "setting": "[1]; [7]", "value": "paradoxically upregulated the phosphorylated AKT level"}, {"measurement": "AKT protein level", "setting": "T-AKT [2]; 1 μM, 24 h", "value": "did not significantly reduce the AKT protein level"}, {"measurement": "GI50", "setting": "PC3 cells", "value": "6.5 ± 2.9", "unit": "µM"}, {"measurement": "GI50", "setting": "MDA-MB-468 cells", "value": "3.8 ± 1.6", "unit": "µM"}, {"measurement": "tumor growth inhibition", "setting": "PC-3 xenografts [3]", "value": 75, "unit": "%"}, {"measurement": "downstream signaling inhibition after washout", "setting": "P-PRAS40, P-S6; 24 h post-treatment", "value": "near fully recovered"}, {"measurement": "PRAS40 and S6 phosphorylation", "setting": "P-PRAS40, P-S6; 1 μM, 24 h", "value": "effectively inhibited PRAS40 and S6 phosphorylation"}]}
{"compound": "Cc1ncsc1-c1ccc(CNC(=O)[C@@H]2C[C@@H](O)CN2C(=O)[C@@H](NC(=O)CCCCCCCCCCC(=O)N2CCN(CC[C@H](NC(=O)C3(N)CCN(c4ncnc5[nH]ccc45)CC3)c3ccc(Cl)cc3)CC2)C(C)(C)C)cc1", "note": "[Compound 20, 4-Amino-N-((S)-1-(4-chlorophenyl)-3-(4-(12-(((S)-1-((2S,4R)-4-hydroxy-2-((4-(4-methylthiazol-5-yl)benzyl)carbamoyl)pyrrolidin-1-yl)-3,3-dimethyl-1-oxobutan-2-yl)amino)-12-oxododecanoyl)-piperazin-1-yl)propyl)-1-(7H-pyrrolo[2,3-d]pyrimidin-4-yl)-piperidine-4-carboxamide]", "values": [{"measurement": "downstream signaling inhibition", "setting": "[1]; BT474 cells, 1, 5 and 10 μM", "value": "slightly enhanced downstream signaling inhibition compared to 19"}, {"measurement": "inhibition of colony formation", "setting": "BT474 cells", "value": "highly effective in inhibiting colony formation; also recorded: effectively inhibited colony formation"}, {"measurement": "time to complete depletion of T-AKT", "setting": "T-AKT [2]; 1 μM", "value": "≤ 8", "unit": "h"}, {"measurement": "T-AKT level after washout", "setting": "T-AKT [2]; 1 μM for 24 h, then washout", "value": "partially recovered"}, {"measurement": "duration of sustained AKT degradation post treatment", "setting": "T-AKT [2]; washout experiments", "value": "1 to 2", "unit": "days"}, {"measurement": "AKT degradation after pretreatment with MLN4924 or MG-132", "setting": "T-AKT [4]; 2 h pretreatment", "value": "significantly diminished the AKT degradation effect"}, {"measurement": "AKT degradation after pretreatment with excess AZD5363", "setting": "T-AKT [4]; AZD5363 (1 μM) 2 h", "value": "rescued the AKT protein level"}, {"measurement": "AKT degradation after pretreatment with excess VHL ligand VHL-2", "setting": "T-AKT [4]; VHL-2 (1 μM) 2 h", "value": "restored the AKT protein level effectively"}, {"measurement": "tolerability", "setting": "PC-3 xenografts [5]", "value": "well tolerated"}, {"measurement": "T-AKT and P-AKT in tumor samples", "setting": "T-AKT, P-AKT, P-PRAS40", "value": "substantially degraded T-AKT and P-AKT"}, {"measurement": "downstream signaling (PRAS40 phosphorylation) in tumor samples", "setting": "T-AKT, P-AKT, P-PRAS40", "value": "effectively inhibited the downstream signaling"}, {"measurement": "downstream signaling inhibition after washout", "setting": "P-PRAS40, P-S6; 48 h post-treatment", "value": "partially recovered"}]}
{"compound": "Cc1ncsc1-c1ccc(CNC(=O)[C@@H]2C[C@@H](O)CN2C(=O)[C@@H](NC(=O)CCCCCCCCCCCC(=O)N2CCN(CC[C@H](NC(=O)C3(N)CCN(c4ncnc5[nH]ccc45)CC3)c3ccc(Cl)cc3)CC2)C(C)(C)C)cc1", "note": "[Compound 21, 4-Amino-N-((S)-1-(4-chlorophenyl)-3-(4-(13-(((S)-1-((2S,4R)-4-hydroxy-2-((4-(4-methylthiazol-5-yl)benzyl)carbamoyl)pyrrolidin-1-yl)-3,3-dimethyl-1-oxobutan-2-yl)amino)-13-oxotridecanoyl)-piperazin-1-yl)propyl)-1-(7H-pyrrolo[2,3-d]pyrimidin-4-yl)-piperidine-4-carboxamide]", "values": [{"measurement": "downstream signaling inhibition", "setting": "[1]; BT474 cells, 1, 5 and 10 μM", "value": "slightly enhanced downstream signaling inhibition compared to 19"}, {"measurement": "inhibition of colony formation", "setting": "BT474 cells", "value": "highly effective in inhibiting colony formation"}]}
{"compound": "Cc1ncsc1-c1ccc([C@H](C)NC(=O)[C@@H]2C[C@@H](O)CN2C(=O)[C@@H](NC(=O)CCCCCCCCCC(=O)N2CCN(CC[C@H](NC(=O)C3(N)CCN(c4ncnc5[nH]ccc45)CC3)c3ccc(Cl)cc3)CC2)C(C)(C)C)cc1", "note": "[Compound 23, 4-Amino-N-((S)-1-(4-chlorophenyl)-3-(4-(11-(((S)-1-((2S,4R)-4-hydroxy-2-(((S)-1-(4-(4-methylthiazol-5-yl)phenyl)ethyl)carbamoyl)-pyrrolidin-1-yl)-3,3-dimethyl-1-oxobutan-2-yl)amino)-11-oxoundecanoyl)piperazin-1-yl)propyl)-1-(7H-pyrrolo[2,3-d]-pyrimidin-4-yl)piperidine-4-carboxamide]", "values": [{"measurement": "AKT (T-AKT) degradation", "setting": "total AKT (T-AKT)", "value": "did not show significant difference from 19"}, {"measurement": "downstream signaling inhibition", "setting": "[1]; BT474 cells, 1, 5 and 10 μM", "value": "did not show significant difference from 19"}, {"measurement": "inhibition of colony formation", "setting": "BT474 cells", "value": "did not show significant difference from 19"}]}
{"compound": "NC1(C(=O)N[C@@H](CCN2CCN(C(=O)CCCCCNc3cccc4c3C(=O)N(C3CCC(=O)NC3=O)C4=O)CC2)c2ccc(Cl)cc2)CCN(c2ncnc3[nH]ccc23)CC1", "note": "(stereo partly drawn) [Compound 28, 4-Amino-N-((1S)-1-(4-chlorophenyl)-3-(4-(6-((2-(2,6-dioxopiperidin-3-yl)-1,3-dioxoisoindolin-4-yl)amino)hexanoyl)piperazin-1-yl)-propyl)-1-(7H-pyrrolo[2,3-d]pyrimidin-4-yl)piperidine-4-carboxamide]", "values": [{"measurement": "AKT (T-AKT) degradation", "setting": "total AKT (T-AKT)", "value": "moderate effectiveness"}, {"measurement": "downstream signaling inhibition", "setting": "[1]; BT474 cells, 1, 5 and 10 μM", "value": "moderate effectiveness"}]}
{"compound": "NC1(C(=O)N[C@@H](CCN2CCN(C(=O)CCOCCOCCOCCOCCOCCNc3cccc4c3C(=O)N(C3CCC(=O)NC3=O)C4=O)CC2)c2ccc(Cl)cc2)CCN(c2ncnc3[nH]ccc23)CC1", "note": "(stereo partly drawn) [Compound 35, 4-Amino-N-((1S)-1-(4-chlorophenyl)-3-(4-(1-((2-(2,6-dioxopiperidin-3-yl)-1,3-dioxoisoindolin-4-yl)amino)-3,6,9,12,15-pentaoxaoctadecan-18-oyl)piperazin-1-yl)propyl)-1-(7H-pyrrolo[2,3-d]-pyrimidin-4-yl)piperidine-4-carboxamide]", "values": [{"measurement": "inhibition of phosphorylation of ribosomal protein S6", "setting": "[1]; BT474 cells, 1, 5 and 10 μM, among 32–38", "value": "most effective in inhibiting the phosphorylation of ribosomal protein S6"}, {"measurement": "AKT protein level after washout", "setting": "T-AKT [2]; 1 μM for 24 h, then washout, 24 h post-treatment", "value": "rebounded substantially"}, {"measurement": "T-AKT level after washout", "setting": "T-AKT [2]; 1 μM for 24 h, then washout", "value": "completely recovered"}, {"measurement": "AUC", "setting": "[6]", "value": 32500, "unit": "ng·h/mL"}, {"measurement": "Cmax", "setting": "[6]", "value": 8, "unit": "µM"}, {"measurement": "Tmax", "setting": "[6]", "value": 1, "unit": "h"}, {"measurement": "downstream signaling inhibition after washout", "setting": "P-PRAS40, P-S6; 24 h post-treatment", "value": "near fully recovered"}]}
{"compound": "NC1(C(=O)N[C@@H](CCN2CCN(C(=O)CCOCCOCCOCCOCCOCCOc3cccc4c3C(=O)N(C3CCC(=O)NC3=O)C4=O)CC2)c2ccc(Cl)cc2)CCN(c2ncnc3[nH]ccc23)CC1", "note": "(stereo partly drawn) [Compound 40, 4-Amino-N-((1S)-1-(4-chlorophenyl)-3-(4-(1-((2-(2,6-dioxopiperidin-3-yl)-1,3-dioxoisoindolin-4-yl)oxy)-3,6,9,12,15-pentaoxaoctadecan-18-oyl)piperazin-1-yl)propyl)-1-(7H-pyrrolo[2,3-d]pyrimidin-4-yl)piperidine-4-carboxamide]", "values": [{"measurement": "AKT (T-AKT) degradation", "setting": "total AKT (T-AKT)", "value": "did not improve"}, {"measurement": "inhibition of colony formation", "setting": "BT474 cells", "value": "did not improve"}]}
{"compound": "NC1(C(=O)N[C@@H](CCN2CCN(C(=O)CCOCCOCCOCCOCCOCCCc3cccc4c3C(=O)N(C3CCC(=O)NC3=O)C4=O)CC2)c2ccc(Cl)cc2)CCN(c2ncnc3[nH]ccc23)CC1", "note": "(some centres unmarked) [Compound 41]", "values": [{"measurement": "AKT (T-AKT) degradation", "setting": "total AKT (T-AKT)", "value": "did not improve"}, {"measurement": "inhibition of colony formation", "setting": "BT474 cells", "value": "did not improve"}]}
{"compound": "CN1C(=O)CCC(N2C(=O)c3cccc(NCCOCCOCCOCCOCCOCCC(=O)N4CCN(CC[C@H](NC(=O)C5(N)CCN(c6ncnc7[nH]ccc67)CC5)c5ccc(Cl)cc5)CC4)c3C2=O)C1=O", "note": "(stereo partly drawn) [Compound 43, 4-Amino-N-((1S)-1-(4-chlorophenyl)-3-(4-(1-((2-(1-methyl-2,6-dioxopiperidin-3-yl)-1,3-dioxoisoindolin-4-yl)amino)-3,6,9,12,15-pentaoxaoctadecan-18-oyl)piperazin-1-yl)propyl)-1-(7H-pyrrolo-[2,3-d]pyrimidin-4-yl)piperidine-4-carboxamide]", "values": [{"measurement": "T-AKT protein level", "setting": "T-AKT [2]; concentrations up to 10 μM, 24 h", "value": "did not reduce the T-AKT protein level"}, {"measurement": "GI50", "setting": "PC3 cells", "value": "inactive"}, {"measurement": "GI50", "setting": "MDA-MB-468 cells", "value": "inactive"}]}
{"compound": "Cc1ncsc1-c1ccc(CNC(=O)[C@@H]2C[C@@H](O)CN2C(=O)[C@@H](N)C(C)(C)C)cc1", "note": "[VHL-1, (2S,4R)-1-[(S)-2-amino-3,3-dimethylbutanoyl]-4-hydroxy-N-[4-(4-methylthiazol-5-yl)benzyl]pyrrolidine-2-carboxamide, reference compound]", "values": [{"measurement": "T-AKT protein level", "setting": "total AKT (T-AKT)", "value": "no effect"}, {"measurement": "downstream signaling (PRAS40 and S6 phosphorylation)", "setting": "[1]; [7]", "value": "no effect"}]}
